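Values below derive from 48-hour exposures of cells grown in 96-well plates, with endpoints linearly interpolated between the two concentrations bracketing the appropriate inhibition level. Here, GI50 denotes the concentration required for 50% inhibition of growth.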 Calls of active or inactive are those of the source. Rule as the data show it: active = GI50 up to about 1.1 µM and inactive = higher.
Key:
Experiment in all cases: inhibition of tumour cell growth, NCI panel, 48 h
[1] = tested on: 786-0
[2] = tested on: A498
[3] = tested on: A549
[4] = tested on: ACHN
[5] = tested on: BT-549
[6] = tested on: CAKI-1
[7] = tested on: CCRF-CEM
[8] = tested on: COLO 205
[9] = tested on: DU-145
[10] = tested on: EKVX
[11] = tested on: HCC 2998
[12] = tested on: HCT-116
[13] = tested on: HCT-15
[14] = tested on: HOP-62
[15] = tested on: HOP-92
[16] = tested on: HT-29
[17] = tested on: Hs-578T
[18] = tested on: IGROV-1
[19] = tested on: K562
[20] = tested on: KM12
[21] = tested on: LOX IMVI
[22] = tested on: M14
[23] = tested on: MCF7
[24] = tested on: MDA-MB-231
[25] = tested on: MDA-MB-435
[26] = tested on: MDA-N
[27] = tested on: Malme-3M
[28] = tested on: NCI-H226
[29] = tested on: NCI-H23
[30] = tested on: NCI-H460
[31] = tested on: NCI-H522
[32] = tested on: NCI/ADR-RES
[33] = tested on: OVCAR-3
[34] = tested on: OVCAR-4
[35] = tested on: OVCAR-5
[36] = tested on: OVCAR-8
[37] = tested on: PC-3
[38] = tested on: RPMI-8226
[39] = tested on: RXF 393
[40] = tested on: SF-268
[41] = tested on: SF-295
[42] = tested on: SF-539
[43] = tested on: SK-MEL-28
[44] = tested on: SK-MEL-2
[45] = tested on: SK-MEL-5
[46] = tested on: SK-OV-3
[47] = tested on: SN12C
[48] = tested on: SNB-19
[49] = tested on: SNB-75
[50] = tested on: SR
[51] = tested on: SW-620
[52] = tested on: T47D
[53] = tested on: TK-10
[54] = tested on: U-251
[55] = tested on: UACC-257
[56] = tested on: UACC-62
[57] = tested on: UO-31
[58] = tested on: HL-60
[59] = tested on: MOLT-4

C=CCC1CC(n2cc(C)c(=O)[nH]c2=O)OC1CO[Si](C)(C)C(C)(C)C (configuration not stated)
GI50 [1]: 15.2 µM (inactive)
GI50 [2]: 19.1 µM (inactive)
GI50 [3]: 12.3 µM (inactive)
GI50 [4]: 15.4 µM (inactive)
GI50 [5]: 16 µM (inactive)
GI50 [6]: 13.7 µM (inactive)
GI50 [7]: 12.1 µM (inactive)
GI50 [8]: 13.5 µM (inactive)
GI50 [9]: 13.5 µM (inactive)
GI50 [10]: 7.52 µM (inactive)
GI50 [11]: 17.9 µM (inactive)
GI50 [12]: 11.7 µM (inactive)
GI50 [13]: 15.3 µM
GI50 [14]: 18.3 µM (inactive)
GI50 [15]: 15.8 µM (inactive)
GI50 [16]: 15.9 µM (inactive)
GI50 [17]: 12.6 µM (inactive)
GI50 [18]: 11.2 µM (inactive)
GI50 [19]: 0.163 µM (active)
GI50 [20]: 12 µM (inactive)
GI50 [21]: 13 µM (inactive)
GI50 [22]: 18.6 µM (inactive)
GI50 [23]: 11.5 µM (inactive)
GI50 [24]: 13.7 µM (inactive)
GI50 [25]: 13.4 µM (inactive)
GI50 [26]: 14 µM (inactive)
GI50 [27]: 10.5 µM (inactive)
GI50 [28]: 13.2 µM (inactive)
GI50 [29]: 12.5 µM (inactive)
GI50 [30]: 16.5 µM (inactive)
GI50 [31]: 10.4 µM (inactive)
GI50 [32]: 15.1 µM (inactive)
GI50 [33]: 15.9 µM (inactive)
GI50 [34]: 12.1 µM (inactive)
GI50 [35]: 17.3 µM (inactive)
GI50 [36]: 15.1 µM (inactive)
GI50 [37]: 11.4 µM (inactive)
GI50 [38]: 11.9 µM (inactive)
GI50 [39]: 4.06 µM (inactive)
GI50 [40]: 15.6 µM (inactive)
GI50 [41]: 17.6 µM (inactive)
GI50 [42]: 13.8 µM (inactive)
GI50 [43]: 16.3 µM (inactive)
GI50 [44]: 15.5 µM (inactive)
GI50 [45]: 15.4 µM (inactive)
GI50 [46]: 14 µM (inactive)
GI50 [47]: 15 µM (inactive)
GI50 [48]: 16.2 µM (inactive)
GI50 [49]: 11.8 µM (inactive)
GI50 [50]: 0.0925 µM (active)
GI50 [51]: 16.1 µM (inactive)
GI50 [52]: 10.4 µM (inactive)
GI50 [53]: 15.8 µM (inactive)
GI50 [54]: 13.6 µM (inactive)
GI50 [55]: 17.2 µM (inactive)
GI50 [56]: 17.2 µM (inactive)
GI50 [57]: 11.4 µM (inactive)

O=C(O)CN1C(=O)c2ccc(NC(=O)C(=O)O)cc2S1(=O)=O
GI50 [1]: > 100 µM (inactive)
GI50 [2]: > 100 µM (inactive)
GI50 [3]: > 100 µM (inactive)
GI50 [4]: > 100 µM (inactive)
GI50 [5]: > 100 µM (inactive)
GI50 [6]: > 100 µM (inactive)
GI50 [7]: > 100 µM (inactive)
GI50 [8]: > 100 µM (inactive)
GI50 [9]: > 100 µM (inactive)
GI50 [10]: > 100 µM (inactive)
GI50 [11]: > 100 µM (inactive)
GI50 [12]: > 100 µM (inactive)
GI50 [13]: > 100 µM
GI50 [58]: > 100 µM (inactive)
GI50 [14]: > 100 µM (inactive)
GI50 [15]: > 100 µM (inactive)
GI50 [17]: > 100 µM (inactive)
GI50 [18]: > 100 µM (inactive)
GI50 [19]: > 100 µM (inactive)
GI50 [20]: > 100 µM (inactive)
GI50 [21]: > 100 µM (inactive)
GI50 [22]: > 100 µM (inactive)
GI50 [23]: > 100 µM (inactive)
GI50 [24]: > 100 µM (inactive)
GI50 [25]: > 100 µM (inactive)
GI50 [26]: > 100 µM (inactive)
GI50 [59]: > 100 µM (inactive)
GI50 [27]: > 100 µM (inactive)
GI50 [28]: > 100 µM (inactive)
GI50 [29]: > 100 µM (inactive)
GI50 [30]: > 100 µM (inactive)
GI50 [31]: > 100 µM (inactive)
GI50 [32]: > 100 µM (inactive)
GI50 [34]: > 100 µM (inactive)
GI50 [35]: > 100 µM (inactive)
GI50 [37]: > 100 µM (inactive)
GI50 [38]: > 100 µM (inactive)
GI50 [39]: > 100 µM (inactive)
GI50 [40]: > 100 µM (inactive)
GI50 [41]: > 100 µM (inactive)
GI50 [43]: > 100 µM (inactive)
GI50 [44]: > 100 µM (inactive)
GI50 [45]: > 100 µM (inactive)
GI50 [46]: > 100 µM (inactive)
GI50 [47]: > 100 µM (inactive)
GI50 [48]: > 100 µM (inactive)
GI50 [50]: > 100 µM (inactive)
GI50 [51]: > 100 µM (inactive)
GI50 [52]: > 100 µM (inactive)
GI50 [53]: > 100 µM (inactive)
GI50 [54]: > 100 µM (inactive)
GI50 [55]: > 100 µM (inactive)
GI50 [56]: > 100 µM (inactive)
GI50 [57]: 89.7 µM (inactive)

Cn1c2ccccc2c(=S)c2ccccc21
GI50 [1]: > 100 µM (inactive)
GI50 [2]: > 100 µM (inactive)
GI50 [3]: > 100 µM (inactive)
GI50 [4]: > 100 µM (inactive)
GI50 [5]: > 100 µM (inactive)
GI50 [6]: > 100 µM (inactive)
GI50 [7]: > 100 µM (inactive)
GI50 [8]: > 100 µM (inactive)
GI50 [9]: > 100 µM (inactive)
GI50 [10]: > 100 µM (inactive)
GI50 [11]: > 100 µM (inactive)
GI50 [12]: > 100 µM (inactive)
GI50 [13]: > 100 µM
GI50 [14]: > 100 µM (inactive)
GI50 [15]: > 100 µM (inactive)
GI50 [16]: > 100 µM (inactive)
GI50 [17]: > 100 µM (inactive)
GI50 [18]: > 100 µM (inactive)
GI50 [19]: > 100 µM (inactive)
GI50 [20]: > 100 µM (inactive)
GI50 [21]: > 100 µM (inactive)
GI50 [22]: > 100 µM (inactive)
GI50 [23]: > 100 µM (inactive)
GI50 [24]: > 100 µM (inactive)
GI50 [25]: > 100 µM (inactive)
GI50 [26]: > 100 µM (inactive)
GI50 [59]: > 100 µM (inactive)
GI50 [28]: > 100 µM (inactive)
GI50 [29]: > 100 µM (inactive)
GI50 [30]: > 100 µM (inactive)
GI50 [31]: > 100 µM (inactive)
GI50 [32]: > 100 µM (inactive)
GI50 [33]: > 100 µM (inactive)
GI50 [35]: > 100 µM (inactive)
GI50 [36]: > 100 µM (inactive)
GI50 [37]: > 100 µM (inactive)
GI50 [38]: > 100 µM (inactive)
GI50 [39]: > 100 µM (inactive)
GI50 [40]: > 100 µM (inactive)
GI50 [41]: > 100 µM (inactive)
GI50 [42]: > 100 µM (inactive)
GI50 [43]: > 100 µM (inactive)
GI50 [44]: > 100 µM (inactive)
GI50 [45]: > 100 µM (inactive)
GI50 [46]: > 100 µM (inactive)
GI50 [47]: > 100 µM (inactive)
GI50 [48]: > 100 µM (inactive)
GI50 [49]: > 100 µM (inactive)
GI50 [50]: > 100 µM (inactive)
GI50 [51]: > 100 µM (inactive)
GI50 [52]: > 100 µM (inactive)
GI50 [53]: > 100 µM (inactive)
GI50 [54]: > 100 µM (inactive)
GI50 [55]: > 100 µM (inactive)
GI50 [56]: > 100 µM (inactive)
GI50 [57]: > 100 µM (inactive)
